# Source: patent publication US11684650B2, “Composition for preventing, alleviating, or treating cachexia and muscle loss” (CHUNG-ANG UNIVERSITY INDUSTRY ACADEMIC COOPERATION …, priority 2018, dated 2023)
# What was measured:
# Assay type in all cases: in vivo, C57BL/6 mice
# [1] = system: mice with tumors induced by MC38 colorectal cancer cells; assay: Food intake of MC38 tumor-bearing mice; details: oral 14 days, extract 100 mg/kg, Megace 125 mg/kg, mean ± standard deviation
# Method: (§1) As experimental animals, 4-week-old male C57BL/6 mice (weighed 18 to 20 g) were purchased from Central Lab Animal Inc., acclimated in a laboratory animal facility for 1 week, and then used in the experiment. During the experiment, the animals were allowed to access feed and water ad libitum, and housed at cages at a temperature of 22±2° C. and a relative humidity of 60±5% under a 12-hr light/12-hr dark cycle.
# (§2) The mice were divided into a normal group (healthy group), a control group (tumor-induced group), a conventional drug-administered group and a Paeoniae radix extract-administered group, each group consisting of 9 animals. […] During the experiment, the food uptake of each mouse was recorded. In addition, the muscle strength of each mouse was measured with a grip strength test device (Bioseb, USA), and the endurance of each mouse was measured under the condition of maximum exercise time of 600 seconds using a treadmill device (Columbus Instrument, USA).
# (§3) While the Paeoniae radix extract was administered orally to the mice for 14 days after tumor induction, the food intake of the mice was recorded. […]
# [2] = system: mice with tumors induced by Lewis lung carcinoma (LLC) cells; assay: Food intake and body weight of LLC tumor-bearing mice; details: oral 14 days, extract 100 mg/kg, Megace 125 mg/kg, mean ± standard deviation
# Method: as §1, §2, §3
# [3] = system: MC38 colorectal cancer cells; assay: Tumor weight, MC38 tumor-bearing mice; details: oral 14 days, extract 100 mg/kg, Megace 125 mg/kg, mean ± standard deviation
# Method: as §2, with “animals. Each animal of the normal group was injected subcutaneously with 100 μl of PBS, and the tumor-induced group (control group), the conventional drug-administered group and the Paeoniae radix extract-administered group were injected subcutaneously with MC38 colorectal cancer cells (1×10^6 cells/100 μl) or Lewis lung carcinoma (LLC) cells (1×10^6 cells/100 μl).” for “animals.”
# (§4) After completion of the experiment, the mice were euthanized, blood was collected therefrom, and then the tumor weight and the hind limb muscle weight were measured, and the serum and muscle concentrations of TNF-α, IL-6, IL-1 and MCP-1 were quantified by ELISA assay. […]
# (§5) After the Paeoniae radix extract was administered orally to the mice for 14 days after tumor induction, the mice were euthanized and the tumor weight was measured. […]
# [4] = system: Lewis lung carcinoma (LLC) cells; assay: Tumor weight, LLC tumor-bearing mice; details: oral 14 days, extract 100 mg/kg, Megace 125 mg/kg, mean ± standard deviation
# Method: as §2, with “animals. Each animal of the normal group was injected subcutaneously with 100 μl of PBS, and the tumor-induced group (control group), the conventional drug-administered group and the Paeoniae radix extract-administered group were injected subcutaneously with MC38 colorectal cancer cells (1×10^6 cells/100 μl) or Lewis lung carcinoma (LLC) cells (1×10^6 cells/100 μl).” for “animals.”
# as §4, §5
# [5] = system: IL-6; assay: Serum and muscle inflammatory cytokine ELISA, MC38 tumor-bearing mice; details: oral 14 days, extract 100 mg/kg, Megace 125 mg/kg, mean ± standard deviation
# Method: as §2, with “animals. Each animal of the normal group was injected subcutaneously with 100 μl of PBS, and the tumor-induced group (control group), the conventional drug-administered group and the Paeoniae radix extract-administered group were injected subcutaneously with MC38 colorectal cancer cells (1×10^6 cells/100 μl) or Lewis lung carcinoma (LLC) cells (1×10^6 cells/100 μl).” for “animals.”
# as §4
# After the Paeoniae radix extract was administered orally to the mice for 14 days after tumor induction, the mice were euthanized and the serum and muscle concentrations of inflammatory cytokines were measured. […]
# [6] = system: TNF-α, IL-6, MCP-1; assay: Serum and muscle inflammatory cytokine ELISA, LLC tumor-bearing mice; details: oral 14 days, extract 100 mg/kg, Megace 125 mg/kg, mean ± standard deviation
# Method: The mice were divided into a normal group (healthy group), a control group (tumor-induced group), a conventional drug-administered group and a Paeoniae radix extract-administered group, each group consisting of 9 animals. Each animal of the normal group was injected subcutaneously with 100 μl of PBS, and the tumor-induced group (control group), the conventional drug-administered group and the Paeoniae radix extract-administered group were injected subcutaneously with MC38 colorectal cancer cells (1×10^6 cells/100 μl) or Lewis lung carcinoma (LLC) cells (1×10^6 cells/100 μl). When the tumor volume reached about 1,000 mm^3 after 2 weeks of tumor induction, the cancer cachexia treatment agent Megace (megestrol acetate), which is most frequently used in current clinical practice, was administered orally to the conventional drug-administered group. Dose of Megace was 125 mg/kg (=625 mg [daily human dose]/60 kg [human's average body weight]×12 [human/mouse body surface area dose equivalent factor]) for 14 days. Paeoniae radix extract prepared in Example 1 was administered orally to the Paeoniae radix extract-administered group for 14 days at a dose of 100 mg/kg, which is slightly lower than the dose of Megace. During the experiment, the food uptake of each mouse was recorded. In addition, the muscle strength of each mouse was measured with a grip strength test device (Bioseb, USA), and the endurance of each mouse was measured under the condition of maximum exercise time of 600 seconds using a treadmill device (Columbus Instrument, USA).
# After completion of the experiment, the mice were euthanized, blood was collected therefrom, and then the tumor weight and the hind limb muscle weight were measured, and the serum and muscle concentrations of TNF-α, IL-6, IL-1 and MCP-1 were quantified by ELISA assay. In addition, the effect of the Paeoniae radix extract on the reduction of muscle atrophy factor (MAFbx) in the hind limb muscle of each LCC cancer-bearing mouse was measured using Western blot and immunofluorescence known in the art.
# After the Paeoniae radix extract was administered orally to the mice for 14 days after tumor induction, the mice were euthanized and the serum and muscle concentrations of inflammatory cytokines were measured. As a result, as shown in Table 4 below and FIGS. 2 and 8, the concentrations of tumor-induced inflammatory cytokines increased in the control group (tumor-induced group) compared to the normal (healthy) group.
# [7] = system: mice with tumors induced by MC38 colorectal cancer cells; assay: Grip strength test, MC38 tumor-bearing mice; details: grip strength on day 12 of oral treatment, extract 100 mg/kg, Megace 125 mg/kg, mean ± standard deviation
# Method: as §2, with “animals. Each animal of the normal group was injected subcutaneously with 100 μl of PBS, and the tumor-induced group (control group), the conventional drug-administered group and the Paeoniae radix extract-administered group were injected subcutaneously with MC38 colorectal cancer cells (1×10^6 cells/100 μl) or Lewis lung carcinoma (LLC) cells (1×10^6 cells/100 μl).” for “animals.”
# (§6) On day 12th day of the oral treatment of conventional drug or the Paeoniae radix extract to the tumor-induced mice, the muscle strength and endurance of the mice were measured by a grip strength (g) test and a treadmill running time (sec) test, respectively.
# [8] = system: mice with tumors induced by Lewis lung carcinoma (LLC) cells; assay: Grip strength test, LLC tumor-bearing mice; details: grip strength on day 12 of oral treatment, extract 100 mg/kg, Megace 125 mg/kg, mean ± standard deviation
# Method: as §2, with “animals. Each animal of the normal group was injected subcutaneously with 100 μl of PBS, and the tumor-induced group (control group), the conventional drug-administered group and the Paeoniae radix extract-administered group were injected subcutaneously with MC38 colorectal cancer cells (1×10^6 cells/100 μl) or Lewis lung carcinoma (LLC) cells (1×10^6 cells/100 μl).” for “animals.”
# as §6
# [9] = system: mice with tumors induced by MC38 colorectal cancer cells; assay: Treadmill running time test, MC38 tumor-bearing mice; details: maximum 600 seconds, day 12 of oral treatment, extract 100 mg/kg, Megace 125 mg/kg, mean ± standard deviation
# Method: as §2, with “animals. Each animal of the normal group was injected subcutaneously with 100 μl of PBS, and the tumor-induced group (control group), the conventional drug-administered group and the Paeoniae radix extract-administered group were injected subcutaneously with MC38 colorectal cancer cells (1×10^6 cells/100 μl) or Lewis lung carcinoma (LLC) cells (1×10^6 cells/100 μl).” for “animals.”
# as §6
# [10] = system: mice with tumors induced by Lewis lung carcinoma (LLC) cells; assay: Treadmill running time test, LLC tumor-bearing mice; details: maximum 600 seconds, day 12 of oral treatment, extract 100 mg/kg, Megace 125 mg/kg, mean ± standard deviation
# Method: as §2, with “animals. Each animal of the normal group was injected subcutaneously with 100 μl of PBS, and the tumor-induced group (control group), the conventional drug-administered group and the Paeoniae radix extract-administered group were injected subcutaneously with MC38 colorectal cancer cells (1×10^6 cells/100 μl) or Lewis lung carcinoma (LLC) cells (1×10^6 cells/100 μl).” for “animals.”
# as §6
smiles,measurement,setting,value
"CC(=O)O[C@]1(C(C)=O)CC[C@H]2[C@@H]3C=C(C)C4=CC(=O)CC[C@]4(C)[C@H]3CC[C@@]21C [Conventional drug, megestrol acetate]",Food intake,[1],2.607 ± 0.357 g
same,Food intake,[2],2.891 ± 0.417 g
same,Tumor weight,[3],11.747 ± 3.073 g
same,Tumor weight,[4],7.797 ± 2.385 g
same,"Cytokine concentration, Muscle IL-6",[5],156.167 ± 29.486 pg/mL
same,"Cytokine concentration, Serum IL-6",[5],49.222 ± 22.762 pg/mL
same,"Cytokine concentration, Muscle TNF-α",[6],21.910 ± 5.414 pg/mL
same,"Cytokine concentration, Serum IL-6",[6],15.616 ± 8.902 pg/mL
same,"Cytokine concentration, Serum MCP-1",[6],431.670 ± 191.640 pg/mL
same,"Cytokine concentration, Serum TNF-α",[6],3.302 ± 0.422 pg/mL
same,Muscle strength,[7],172.065 ± 28.210 g
same,Muscle strength,[8],154.883 ± 17.238 g
same,Endurance,[9],177.400 ± 60.844 s
same,Endurance,[10],338.333 ± 157.322 s
